# Reference: ChEMBL document CHEMBL4725284, “Junceellolide B, a novel inhibitor of Hepatitis B virus” (Bioorg Med Chem, 2020)
# What was measured:
# [1] = Cytotoxicity against human HePAD38 cells assessed as cell viability incubated for 72 hrs by MTT assay; type: cell-based
# Hepatitis B virus = test: Antiviral activity against HBV infected in human HepAD38 cells assessed as inhibition of viral DNA at 10 uM incubated for 4 days by SYBR green dye based RT-PCR analysis relative to control; type: functional; conditions: HePAD38, 96 h, time 4 day
# [2] = Cytotoxicity against human HepG2 cells assessed as cell viability incubated for 72 hrs by MTT assay; type: cell-based
Structure (SMILES),CC50 at 72 h [1],inhibition at 10 µM (Hepatitis B virus),CC50 at 72 h [2]
C=C1/C=C/[C@H](OC(=O)CC)[C@@]2(C)[C@@H](OC(C)=O)[C@@H](OC(C)=O)C[C@]3(CO3)[C@@H]2[C@H](OC(C)=O)[C@]2(O)[C@@H](C)C(=O)O[C@H]2[C@H]1Cl,> 100 µM,0%,> 100 µM
C=C1/C=C\[C@H](OC(=O)COC(=O)CC(C)C)[C@@]2(C)[C@@H](OC(C)=O)CC[C@]3(CO3)[C@@H]2[C@H](OC(C)=O)[C@]2(O)[C@@H](C)C(=O)O[C@H]2[C@H]1Cl [FRAJUNOLIDE G],> 100 µM,0%,> 100 µM
C=C1[C@@H](OC(C)=O)C[C@H](OC(C)=O)[C@]2(C)[C@@H](OC(C)=O)C[C@@H](OC(C)=O)/C(C)=C\[C@@H]3OC(=O)[C@H](C)[C@@]3(O)[C@@H](OC(C)=O)[C@@H]12,> 100 µM,0%,> 100 µM
CC(=O)O[C@H]1CC[C@]2(CO2)[C@@H]2[C@H](OC(C)=O)[C@@]3(O)[C@H](/C=C(CCl)\C=C/[C@H](OC(=O)COC(=O)CC(C)C)[C@@]12C)OC(=O)[C@@H]3C,> 100 µM,0%,> 100 µM
C=C1[C@H](Cl)[C@@H]2OC(=O)[C@H](C)[C@]23O[C@@H]1[C@@H](O)[C@H](OC(C)=O)[C@@]1(C)[C@@H](OC(C)=O)CC[C@]2(CO2)[C@@H]1[C@@H]3OC(C)=O,> 100 µM,0%,> 100 µM
C=C1CC[C@H](OC(C)=O)[C@]2(C)[C@@H](OC(C)=O)C[C@@H](OC(C)=O)/C(COC(C)=O)=C\[C@@H]3OC(=O)[C@H](C)[C@@]3(O)[C@@H](OC(C)=O)[C@@H]12,> 100 µM,0%,> 100 µM
Nc1ccn([C@@H]2CS[C@H](CO)O2)c(=O)n1 [LAMIVUDINE],–,70%,–
C=C1CC[C@H](OC(C)=O)[C@]2(C)[C@@H](OC(C)=O)C[C@@H](OC(C)=O)/C(C(=O)OC)=C\[C@@H]3OC(=O)[C@H](C)[C@@]3(O)[C@@H](OC(C)=O)[C@@H]12,> 100 µM,1%,> 100 µM
C=C1CC[C@H](OC(C)=O)[C@]2(C)[C@@H](OC(C)=O)C[C@@H](OC(C)=O)/C(CO)=C\[C@@H]3OC(=O)[C@H](C)[C@@]3(O)[C@@H](OC(C)=O)[C@@H]12,> 100 µM,0%,> 100 µM
C=C1/C=C/[C@H](OC(C)=O)[C@@]2(C)[C@@H](OC(C)=O)[C@@H](OC(C)=O)C[C@]3(CO3)[C@@H]2[C@H](OC(C)=O)[C@]2(O)[C@@H](C)C(=O)O[C@H]2[C@H]1Cl [FRAJUNOLIDE I],> 100 µM,41%,> 100 µM
CC(=O)OCC(=O)O[C@H]1/C=C\C(CCl)=C/[C@@H]2OC(=O)[C@H](C)[C@@]2(O)[C@@H](OC(C)=O)[C@H]2[C@@](O)(CCl)CC[C@H](OC(C)=O)[C@]12C,> 100 µM,58%,> 100 µM
C=C1[C@H](Cl)[C@@H]2OC(=O)[C@H](C)[C@]23O[C@@H]1[C@@H](OC(C)=O)[C@H](OC(C)=O)[C@@]1(C)[C@@H](OC(C)=O)CC[C@]2(CO2)[C@@H]1[C@@H]3OC(C)=O,> 100 µM,17%,> 100 µM
C=C1CC[C@H](OC(C)=O)[C@@]2(C)[C@H]1[C@H](OC(C)=O)[C@@]13O[C@@H](C(=C)[C@H](Cl)[C@@H]1OC(=O)[C@@H]3C)[C@@H](O)[C@@H]2OC(C)=O,> 100 µM,10%,> 100 µM
C=C1CC[C@H](OC(C)=O)[C@@]2(C)[C@H]1[C@H](OC(C)=O)[C@@]13O[C@@H](C(=C)[C@H](Cl)[C@@H]1OC(=O)[C@@H]3C)[C@@H](OC(C)=O)[C@@H]2OC(C)=O,> 100 µM,27%,> 100 µM
C=C1CC[C@H](OC(C)=O)[C@]2(C)[C@@H](OC(C)=O)C[C@@]3(O)O[C@]4([C@@H](C)C(=O)O[C@H]4[C@@H](Cl)C3=C)[C@@H](OC(C)=O)[C@@H]12,> 100 µM,40%,> 100 µM
C=C1C[C@H](OC(C)=O)[C@H](OC(C)=O)[C@]2(C)[C@@H](OC(C)=O)/C=C/C(=C)[C@H](Cl)[C@@H]3OC(=O)[C@H](C)[C@@]3(O)[C@@H](OC(C)=O)[C@@H]12 [FRAJUNOLIDE H],> 100 µM,25%,> 100 µM
C=C1CC[C@H](OC(C)=O)[C@]2(C)[C@@H](OC(C)=O)C[C@@H](OC(C)=O)/C(CCl)=C\[C@@H]3OC(=O)[C@H](C)[C@@]3(O)[C@@H](OC(C)=O)[C@@H]12,> 100 µM,0%,> 100 µM
CC(=O)OCC1=C/[C@@H]2OC(=O)[C@H](C)[C@@]2(O)[C@@H](OC(C)=O)[C@H]2[C@]3(CC[C@H](OC(C)=O)[C@]2(C)[C@@H](OC(C)=O)/C=C\1)CO3,> 100 µM,0%,> 100 µM
